Values quoted from earlier work in publication doi:10.1101/2025.09.24.678446, “Exploiting Peptide Chirality and Transport to Dissect the Complex Mechanism of Action of Host Peptides on Bacteria” (bioRxiv, 2025).

Tested on: BacA

bleomycin
transport by BacA: BacA has previously been shown to transport many varieties of peptides, including bleomycin
